Test results from patent US20180140578A1, “METHODS AND COMPOSITIONS FOR THE DIAGNOSIS AND SELECTIVE TREATMENT OF CANCER” (Board of Regents of the University of Texas System, priority 2016, published 2018).
Read-outs that look alike come from different tables or passages of the source.

Assays:
[1] = test system: indisulam resistant HCT-116 clones; test: Cell viability assay, indisulam resistant clones; type: cell-based, human; settings: six indisulam resistant clones
Experimental: (§1) The methods for generating a population of barcoded HCT-116 cells were described before (20). […] Clones that appeared after the selection was then expanded and barcode genotyped to identify six clones with unique barcodes. […] Source data for exome sequencing data is available under NCBI SRA accession SRP068238. Bortezomib resistant clones were isolated by selection with 5 nM bortezomib, and MLN4924 resistant clones with 40 nM MLN4924.
(§2) 12-point dose responses were performed on 96-well assay plates with cell plating (1500-4000 cell per well) on day 1, compound addition on day 2, and survival measurement on day 5. Compounds were diluted in DMSO before adding to the cells. Final DMSO concentration was 0.5%. Cell survival assay was performed using CellTiter-Glo Luminescent Cell Viability Assay kit (Promega) that measures cellular ATP content. Luminescence was recorded by EnVison multimode plate reader (Perkin Elmer). IC50 was determined with GraphPad Prism using baseline correction (by normalizing to DMSO control), the asymmetric (five parameter) equation and least squares fit.

[2] = test system: RBM39 in parental HCT-116 cells; test: Block of indisulam dependent RBM39 degradation, parental cells; type: cell-based, human
Excerpt: (§3) (B) RBM39-AID is degraded in the presence of TIR1 and IAA in HCT-116 cells. (C) IAA and TIR1 dependent degradation of RBM39-AID results in cell death. Error bars represent standard errors of the mean (SEM) (n=3). […] The effect of bortezomib is attenuated in a bortezomib resistant cell line. […] The effect of MLN4924 is abrogated in an MLN4924 resistant cell line.
(§4) Proteins were resolved on SDS-PAGE and transferred to 0.5 μm nitrocellulose membranes. Membranes were blocked in 5% milk TBST for 30 min, and then anti-RBM39 antibodies (HPA001591, Sigma-Aldrich) were added in 5% milk (1:5000) and incubated on a shaker overnight at 4° C. After three 5 min washes with TBST, membranes were incubated with HRP-conjugated goat anti-rabbit secondary antibody (Bio-Rad) for 2 hr at room temperature. After three 5 min washes with TBST, membranes were developed with ECL (enhanced chemiluminescence) substrates.

[3] = test system: RBM39 in PSMB5 A108T HCT-116 cells; test: Block of indisulam dependent RBM39 degradation, bortezomib resistant line; type: cell-based, human; settings: PSMB5 A108T cell line
Excerpt: as §3, §1, §4

[4] = test system: RBM39 in UBA3 A171T HCT-116 cells; test: Block of indisulam dependent RBM39 degradation, MLN4924 resistant line; type: cell-based, human; settings: cells harboring UBA3 A171T mutation
Excerpt: as §3, §1, §4

HCT-116 cells = test: Cell viability assay (CellTiter-Glo); type: cell-based, human; settings: for IC50: read-out: concentration required to reduce the viability by 50% (IC50), parental HCT-116 cells; for toxicity to HCT-116 cells: at concentrations as high as 50 μM
Experimental: The identity for all human cell lines in this study was confirmed by short tandem repeat (STR) analysis. In addition, all human cell lines were confirmed to be mycoplasma free using a PCR based assay (Genatlantis). HCT-116 cells (ATCC) were grown in DMEM medium with 10% FBS and 2 mM L-glutamine. Lenti-X 293T cells (Clontech) were cultured in DMEM medium with 10% FBS and 2 mM L-glutamine. H1155 cells (a gift from Adi Gazdar and John Minna, UT Southwestern) were cultured in RPMI media with 5% FBS and 2 mM L-glutamine. SF9 cells (a gift from Hongtao Yu, UT Southwestern) were cultured in SF900 II serum free media (Life Technologies).
as §2

[5] = molecular target: T1, DCAF15-3xFLAG and RBM39Δ150 (Homo sapiens, UniProt Q14498+Q66K64); test: RBM39Δ150 pulldown assay; type: binding; settings: wild type RBM39Δ150
T1 construct: Full-length cDNAs encoding CUL4A, CUL4B, DCAF15, and DDB1 were cloned into pLVX IRES Puro; made in house; host or cells: RBM39Δ150: Sf9 (baculovirus); DCAF15-3xFLAG: anti-FLAG beads from HCT-116 or 293T cells stably expressing it
Experimental: RBM39 lacking the first 150 amino acids after the start codon (RBM39Δ150) was cloned into the pFastBac1 (Life Technologies) vector. Site-directed Mutagenesis of RBM39 was performed using Q5 site-directed mutagenesis kit (NEB). DCAF15-GST (C-terminal GST tag) and DDB1 were also cloned into pFastBac1. The production of baculovirus was carried out following vendor's instructions. Protein was expressed in SF9 cells by infection with each protein specific baculovirus, and cells were harvested 48 hr later and frozen in liquid nitrogen. For purification of RBM39Δ150, frozen cells were pulverized by cryomill and resuspended in lysis buffer (40 mM Tris, pH 7.5, 225 mM NaCl, 1× […] Protease inhibitor). The lysate was passed through a 22 gauge needle 2 times followed by ultracentrifugation at 25000 rpm for 30 min. Clarified lysate was incubated with Ni-NTA agarose (Qiagen) for 30 min with rotation at 4° C. Resin and bound protein were washed with wash buffer 1 (40 mM Tris, pH 7.5, 225 mM NaCl) followed by wash buffer 2 (40 mM Tris, pH 7.5, 20 mM imidazole, 225 mM NaCl). Proteins were eluted with elution buffer (40 mM Tris, pH 7.5, 300 mM imidazole, 225 mM NaCl) and concentrated to 0.5 ml. Concentrated proteins were then fractionated on Superdex 200 Increase 10/300 GL (GE Healthcare). RBM39Δ150 and mutants eluted at 14.8 ml after injection and were stored at −80° C. in 40 mM Tris, pH 7.5, 225 mM NaCl. For purification of DCAF15-GST/DDB1, Sf9 cells co-infected with DCAF15-GST and DDB1 baculoviruses were lysed in PBS supplemented with 0.1% NP40, 1× […] Protease inhibitors, and 0.5 mM PMSF. The lysate was passed through a 22 gauge needle 2 times followed by centrifugation at 7000 rpm for 15 min. Clarified lysate was incubated with Glutathione Sepharose 4B resin (GE healthcare) for 30 min with rotation at 4° C. Resin was washed with PBS for three times before elution with 50 mM Tris, 10 mM glutathione, pH 8.
HCT-116 cells stably expressing DDB1-3xFLAG, CUL4A-3xFLAG, CUL4B-3xFLAG, or to DCAF15-3xFLAG were lysed in 1×PBS, 0.1% NP40, and 1× […] protease inhibitor (1 ml per […] plate). […]

RBM39-Nluc = molecular target: T2, RBM39-Nluc (Homo sapiens, UniProt Q14498+Q66K64); test: RBM39-Nluc degradation by Nano-Glo luciferase assay; type: cell-based; settings: H1155 RBM39-Nluc cells; read-out: decrease in RBM39-Nluc activity (IC50)
T2 construct: Homology directed repair facilitates tagging of endogenous RBM39 by AID, 3xFLAG, AcGFP, or Nanoluciferase; endogenous in cells; host or cells: H1155 RBM39-Nluc knock-in cells
Experimental: NanoLuc was knocked-in to the 3-prime end of the RBM39 gene using the procedure described above yielding H1155 RBM39-Nluc cells. […] Luminescence was recorded by EnVision multimode plate reader (Perkin Elmer). IC50 was determined with GraphPad Prism using baseline correction (by normalizing to DMSO control), the asymmetric (five parameter) equation and least squares fit.

[6] = test system: HCT-116 RBM39 G268V knock-in cells; test: Cell viability assay, RBM39 G268V knock-in; type: cell-based, human; settings: at concentrations as high as 50 μM
Experimental: as §2
sgRNA targeting RBM39 (5′-[…]-3′) was cloned into the pSpCas9(BB)-2A-Puro (PX459) vector (Addgene 62988). For RBM39 G268V knock-in, 1 million HCT-116 or H1155 cells were nucleofected (using 4D-Nucleofector, Lonza) with PX459-RBM39 sgRNA and the single-stranded oligo 5′-[…] […] […] […]-3′ (SEQ ID NO: 13).

[7] = test system: DCAF15-3xFLAG and mutant RBM39Δ150 (M265L, E271Q, P272S); test: RBM39Δ150 pulldown assay, mutant RBM39; type: binding, human; settings: M265L, E271Q, P272S
Experimental: RBM39 lacking the first 150 amino acids after the start codon (RBM39Δ150) was cloned into the pFastBac1 (Life Technologies) vector. Site-directed Mutagenesis of RBM39 was performed using Q5 site-directed mutagenesis kit (NEB). DCAF15-GST (C-terminal GST tag) and DDB1 were also cloned into pFastBac1. The production of baculovirus was carried out following vendor's instructions. Protein was expressed in SF9 cells by infection with each protein specific baculovirus, and cells were harvested 48 hr later and frozen in liquid nitrogen. For purification of RBM39Δ150, frozen cells were pulverized by cryomill and resuspended in lysis buffer (40 mM Tris, pH 7.5, 225 mM NaCl, 1× […] Protease inhibitor). The lysate was passed through a 22 gauge needle 2 times followed by ultracentrifugation at 25000 rpm for 30 min. Clarified lysate was incubated with Ni-NTA agarose (Qiagen) for 30 min with rotation at 4° C. Resin and bound protein were washed with wash buffer 1 (40 mM Tris, pH 7.5, 225 mM NaCl) followed by wash buffer 2 (40 mM Tris, pH 7.5, 20 mM imidazole, 225 mM NaCl). Proteins were eluted with elution buffer (40 mM Tris, pH 7.5, 300 mM imidazole, 225 mM NaCl) and concentrated to 0.5 ml. Concentrated proteins were then fractionated on Superdex 200 Increase 10/300 GL (GE Healthcare). […]

RBM39-AID = test: Auxin induced degradation of RBM39 (western blotting); type: cell-based, human; settings: cells that express both RBM39-AID and TIR1
Experimental: (§5) TIR1 cDNA with a V5 tag sequence appended to its 3′ end was cloned into pLVX IRES zsGreenland packaged into lentivirus to infect both parental HCT-116 cells and RBM39-AID-3xFLAG knock-in cells. Following lentiviral delivery of TIR1, cells with top 5% strongest zsGreen expression were sorted by FACS. TIR1-V5 expression was confirmed by western blot with HRP conjugated anti-VS (Sigma-Aldrich, V2260, 1:5000). For examination of RBM39-AID-3xFLAG degradation, cells were treated with 500 μM IAA for 4 hours before being lysed for western blotting. For IAA dose response curves, cells were treated with various concentrations of IAA for 72 hours and ATP levels were quantified using Cell-Titer Glo (Promega).

[8] = test system: HCT-116 cells expressing RBM39-AID and TIR1; test: IAA dose response, cell viability (Cell-Titer Glo); type: cell-based, human; settings: cells that express both RBM39-AID and TIR1
Experimental: as §5

T1 sequence (Q66K64 whole entry, stated change not applied): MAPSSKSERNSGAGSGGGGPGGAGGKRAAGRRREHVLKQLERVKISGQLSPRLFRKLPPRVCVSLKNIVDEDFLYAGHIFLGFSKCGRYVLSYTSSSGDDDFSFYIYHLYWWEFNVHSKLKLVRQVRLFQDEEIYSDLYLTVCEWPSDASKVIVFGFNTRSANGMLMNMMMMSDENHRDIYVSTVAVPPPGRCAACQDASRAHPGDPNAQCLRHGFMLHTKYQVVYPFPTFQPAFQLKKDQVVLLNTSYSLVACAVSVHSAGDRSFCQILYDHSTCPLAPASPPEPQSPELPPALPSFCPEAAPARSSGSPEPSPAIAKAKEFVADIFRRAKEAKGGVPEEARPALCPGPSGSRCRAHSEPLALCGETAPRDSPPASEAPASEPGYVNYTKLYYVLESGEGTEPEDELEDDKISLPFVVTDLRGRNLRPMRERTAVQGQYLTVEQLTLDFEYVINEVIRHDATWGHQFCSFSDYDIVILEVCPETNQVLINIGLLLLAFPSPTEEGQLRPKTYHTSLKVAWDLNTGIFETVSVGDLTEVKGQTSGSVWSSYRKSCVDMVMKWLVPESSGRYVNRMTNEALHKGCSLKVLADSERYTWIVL
T1 sequence (Q14498 151-530 limits assumed, stated change not applied): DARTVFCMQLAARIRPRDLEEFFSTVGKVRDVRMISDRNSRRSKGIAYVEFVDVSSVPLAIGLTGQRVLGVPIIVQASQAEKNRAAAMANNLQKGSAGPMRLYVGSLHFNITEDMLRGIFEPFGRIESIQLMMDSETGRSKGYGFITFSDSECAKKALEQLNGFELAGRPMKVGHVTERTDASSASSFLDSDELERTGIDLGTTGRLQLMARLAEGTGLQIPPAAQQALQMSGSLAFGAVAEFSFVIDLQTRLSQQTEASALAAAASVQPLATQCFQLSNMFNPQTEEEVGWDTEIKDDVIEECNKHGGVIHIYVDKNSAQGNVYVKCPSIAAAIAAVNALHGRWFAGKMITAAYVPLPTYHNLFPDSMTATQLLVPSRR
T1 sequence (Q16531 whole entry partner): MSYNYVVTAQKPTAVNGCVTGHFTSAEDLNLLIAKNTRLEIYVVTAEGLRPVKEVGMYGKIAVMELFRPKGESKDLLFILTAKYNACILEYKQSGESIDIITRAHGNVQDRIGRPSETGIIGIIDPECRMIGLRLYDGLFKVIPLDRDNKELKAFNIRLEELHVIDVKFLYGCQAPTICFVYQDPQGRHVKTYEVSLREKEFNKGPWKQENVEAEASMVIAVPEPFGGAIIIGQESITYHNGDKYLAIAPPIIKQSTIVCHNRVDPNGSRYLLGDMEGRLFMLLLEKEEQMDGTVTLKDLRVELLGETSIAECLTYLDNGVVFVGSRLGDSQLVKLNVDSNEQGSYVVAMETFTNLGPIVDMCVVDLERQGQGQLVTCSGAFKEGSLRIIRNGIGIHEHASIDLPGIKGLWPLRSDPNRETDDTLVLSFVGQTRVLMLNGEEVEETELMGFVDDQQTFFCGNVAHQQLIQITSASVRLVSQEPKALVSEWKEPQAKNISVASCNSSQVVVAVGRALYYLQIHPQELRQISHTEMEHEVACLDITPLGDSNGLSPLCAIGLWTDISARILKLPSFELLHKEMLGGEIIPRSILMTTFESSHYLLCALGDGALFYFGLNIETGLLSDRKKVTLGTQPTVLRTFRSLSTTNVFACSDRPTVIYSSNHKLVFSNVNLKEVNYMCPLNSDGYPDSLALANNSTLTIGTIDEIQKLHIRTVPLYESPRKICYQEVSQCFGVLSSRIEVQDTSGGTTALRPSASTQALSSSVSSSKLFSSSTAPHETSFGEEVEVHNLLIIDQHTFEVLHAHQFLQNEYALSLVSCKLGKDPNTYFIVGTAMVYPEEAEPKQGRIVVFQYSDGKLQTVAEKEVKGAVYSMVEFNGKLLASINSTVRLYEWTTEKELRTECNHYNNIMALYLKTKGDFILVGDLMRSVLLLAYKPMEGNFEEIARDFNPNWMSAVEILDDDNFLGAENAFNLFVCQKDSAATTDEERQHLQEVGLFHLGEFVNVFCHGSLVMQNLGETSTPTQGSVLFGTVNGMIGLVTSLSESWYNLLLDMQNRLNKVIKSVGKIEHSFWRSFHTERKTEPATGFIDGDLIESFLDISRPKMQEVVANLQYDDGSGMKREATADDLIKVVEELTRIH

Question: CC(=O)O[C@H]1C(=O)[C@@]2(C)[C@H]([C@H](OC(=O)c3ccccc3)[C@]3(O)C[C@H](OC(=O)[C@H](O)[C@@H](NC(=O)c4ccccc4)c4ccccc4)C(C)=C1C3(C)C)[C@]1(OC(C)=O)CO[C@@H]1C[C@@H]2O [paclitaxel] was tested. Which “resistance of indisulam resistant clones to paclitaxel” value [1] did it give?
Answer: None of the clones were resistant

Question: With CC(C)C[C@H](NC(=O)[C@H](Cc1ccccc1)NC(=O)c1cnccn1)B(O)O [bortezomib] as the molecule, how does the “concentration of bortezomib that blocked the degradation of RBM39 in response to indisulam” value ([2]; parental cells, 2 h pretreatment, then 6 h 2 μM indisulam) read?
Answer: 10 nM

Question: What about the “level of bortezomib required for comparable rescue of RBM39 levels, relative to parental” value [3] of the same molecule?
Answer: 10 fold

Question: How did the “effect on degradation of RBM39 in response to indisulam” value ([2]; HCT-116 cells) turn out when NS(=O)(=O)OC[C@@H]1C[C@@H](n2ccc3c(N[C@H]4CCc5ccccc54)ncnc32)C[C@@H]1O [MLN4924] was run?
Answer: blocked the degradation of RBM39

Question: And the “effect on degradation of RBM39 in response to indisulam” value [4]?
Answer: did not observe this effect

Question: For O=C(NS(=O)(=O)c1ccc(Br)s1)c1ccc(Cl)cc1Cl [tasisulam], which IC50 (HCT-116 cells) is on record?
Answer: 6.5 µM

Question: And the “recruitment of RBM39Δ150 to DCAF15” value [5]?
Answer: recruit RBM39Δ150 to DCAF15 in a dose-dependent manner

Question: And the IC50 (RBM39-Nluc)?
Answer: 5.6 µM

Question: What about the “sensitivity of cell line carrying RBM39 G268V” value [6] of the same molecule?
Answer: insensitive

Question: And the “recruitment of indisulam-resistant mutants of RBM39 to DCAF15” value [7]?
Answer: not effectively recruited

Question: CC1(C)O[C@@H]2[C@@H](CO[C@@]3(COS(N)(=O)=O)OC(C)(C)O[C@@H]23)O1 [topirimate, topiramate] was tested. Which “toxicity to HCT-116 cells” value (HCT-116 cells) did it give?
Answer: non-toxic

Question: What does the source list for Nc1ccc(S(=O)(=O)Nc2cnc3c(Cl)cccc3n2)cc1 [CQS, chloroquinoxaline sulfonamide]?
Answer: IC50 (HCT-116 cells; Homo sapiens): 7.1 µM; DC50 (RBM39-Nluc): 2.4 µM

Question: Which RBM39 levels (RBM39-AID) does the source give for O=C(O)Cc1c[nH]c2ccccc12 [IAA, 3-indoleacetic acid] here?
Answer: decrease in RBM39 levels

Question: And the cell viability [8]?
Answer: loss in cell viability

Question: With CC(=O)Nc1nnc(S(N)(=O)=O)s1 [acetazolamide] as the molecule, how does the “toxicity to HCT-116 cells” value (HCT-116 cells) read?
Answer: non-toxic
